Target: Cyclin-dependent kinase 2/cyclin E1 (Homo sapiens, UniProt P24941)
Assay: Inhibition of recombinant full length wild-type CDK2/Cyclin E1 (unknown origin) expressed in baculovirus expression system assessed as […] using 5-FAM-QSPKKG-CONH2 peptide as substrate preincubated with enzyme for 15 mins followed by further incubation with ATP for 45 mins by fluorescence-based microfluidic mobility shift assay

SMILES	Ki [nM]
COc1ccc(CC(=O)Nc2cc([C@@H]3CC[C@H](OC(=O)N4CCC4(C)C)C3)[nH]n2)cn1	0.12
Cc1ncc(CC(=O)Nc2cc([C@H]3CC[C@@H](OC(=O)N4C[C@@H](C#N)[C@@H]4C)C3)[nH]n2)s1 (single isomer, unassigned)	0.15
COc1ccc(CC(=O)Nc2cc([C@H]3CC[C@@H](OC(=O)N4C[C@@H](C#N)[C@@H]4C)C3)[nH]n2)cn1 (single isomer, unassigned)	0.17
CCC(CO)CNC(=O)O[C@@H]1CC[C@H](c2cc(NC(=O)Cc3ccc(OC)nc3)n[nH]2)C1 (single isomer, unassigned)	0.77

Source: ChEMBL document CHEMBL4665901, “Novel CDK2 Inhibitors for Treating Cancer” (ACS Med Chem Lett, 2020)
